From patent EP1322622B1, “NEW N, N'-DISUBSTITUTED BENZIMIDAZOLONE DERIVATIVES WITH AFFINITY AT THE SEROTONIN AND DOPAMINE RECEPTORS” (Sprout Pharmaceuticals, Inc., priority 2000, dated 2002) come the findings set out here.

The target of one experiment is T1, 5-HT1A human receptors (Homo sapiens, UniProt P08908).
T1 construct: expressed in transfected cells; host or cells: CHO cells
T1 sequence (P08908 1-422): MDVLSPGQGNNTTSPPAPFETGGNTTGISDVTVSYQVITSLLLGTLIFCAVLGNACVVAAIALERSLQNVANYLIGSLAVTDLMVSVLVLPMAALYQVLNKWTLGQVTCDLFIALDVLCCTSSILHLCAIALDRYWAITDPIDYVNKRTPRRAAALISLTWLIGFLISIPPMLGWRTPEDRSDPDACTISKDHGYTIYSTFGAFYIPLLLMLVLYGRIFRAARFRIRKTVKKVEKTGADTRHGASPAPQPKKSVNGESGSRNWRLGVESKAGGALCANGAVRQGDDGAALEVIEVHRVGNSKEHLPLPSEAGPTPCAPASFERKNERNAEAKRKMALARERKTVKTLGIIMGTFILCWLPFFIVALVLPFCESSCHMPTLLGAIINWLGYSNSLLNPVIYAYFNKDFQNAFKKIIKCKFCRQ
The experiment is described as follows: 5-HT1A Radioligand Receptor Binding Assay ([3H]-8-OH-DPAT, CHO cell membranes). To be noted: compound at 10^-7 M, singlicate; [3H]-8-OH-DPAT 0.6-0.7 nM; read-out: 5-HT1A receptor binding assay % inhib. (10^-7 M). The method, then: Membranes from CHO cells, expressing 5-HT1A human receptors were suspended in incubation buffer.
The compounds were tested in singlicate at one concentration (10^-7 M) in a total volume of 1000 µl. 980 µl of diluted membranes, 10 µl DMSO or unlabelled ligand and 10 µl of [^3H]-8-OH-DPAT (0.6-0.7 nM) were incubated for 60 min at 27 °C. The reaction was stopped by rapid filtration through Tomtec cell Harvester (48 wells) using Filtermat B (presoaked in 0.1% PEI) filters. […] Non specific binding was determined in the presence of 5-HT (10^-5 M).
(§1) The specific radioligand binding to the receptor was defined by the difference between total binding and non specific binding, determined in the presence of an excess of unlabelled ligand. Results were expressed as percentage of control specific binding obtained in the presence of the compounds.
The affinity values (IC50) for the compounds were obtained by a non linear least squares regression analysis on the basis of a one binding site model.

The target of another experiment is T2, D4 human receptors (Homo sapiens, UniProt P21917).
T2 construct: expressed in transfected cells; host or cells: CHO cells
T2 sequence (P21917 1-419): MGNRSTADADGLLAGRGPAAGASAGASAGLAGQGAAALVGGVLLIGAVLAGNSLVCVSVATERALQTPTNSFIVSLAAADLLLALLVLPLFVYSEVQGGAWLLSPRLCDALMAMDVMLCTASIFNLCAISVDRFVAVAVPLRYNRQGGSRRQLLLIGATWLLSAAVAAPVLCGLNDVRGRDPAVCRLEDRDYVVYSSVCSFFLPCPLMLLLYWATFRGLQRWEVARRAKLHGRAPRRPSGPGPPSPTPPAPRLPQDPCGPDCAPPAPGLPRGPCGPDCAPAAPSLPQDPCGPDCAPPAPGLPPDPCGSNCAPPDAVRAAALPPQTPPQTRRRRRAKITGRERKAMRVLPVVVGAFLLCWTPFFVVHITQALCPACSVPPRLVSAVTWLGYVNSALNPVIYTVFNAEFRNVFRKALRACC
The experiment is described as follows: D4 Radioligand Receptor Binding Assay ([3H] YM-09151-2, CHO cell membranes). To be noted: compound at 10^-7 M, singlicate; [3H] YM-09151-2 0.15-0.25 nM; read-out: D4 receptor binding assay % inhib. (10^-7 M). The protocol: Membranes from CHO cells, expressing D4 human receptors were suspended in incubation buffer.
Binding assays were performed in MultiProbe 204 pipetting system (Packard), according to a predetermined mapping, consistent with the software Screen. The compounds were tested in singlicate at one concentration (10^-7 M) in a total volume of 1000 µl (980 µl of diluted membranes, 10 µl DMSO or unlabelled ligand and 10 µl of [^3H] YM-09151-2 (0.15-0.25 nM). After incubation for 120 min at 27 °C, the reaction was stopped by rapid filtration through Tomtec cell Harvester (48 wells) using Filtermat B (presoaked in 0.1% PEI) filters. Filters were washed with ice-cold 50 mM Tris-HCl (pH 7.4) buffer (9 x 700 µl), dryed, covered with MeltiLex B/HS (Wallac) scintillator sheets and heated in oven at 80-90 °C for about 10 min, transferred into plastic sample bags (Wallac), sealed and put into 1024 Beta Plate scintillation counter (Wallac). Non specific binding was determined in the presence of clozapine dissolved in DMSO to a final concentration of 10^-5 M.
as §1

Take `O=c1n(CCO)c2ccccc2n1CCCCN1CCN(c2ccccn2)CC1` [compound 59]: the figures for the inhibition at 0.1 µM at 5-HT1A human receptors and at D4 human receptors were 75% and 51%, respectively.

As for `O=c1n(CCO)c2ccccc2n1CCCCN1CCc2c([nH]c3ccccc23)C1` [compound 62], the inhibition at 0.1 µM turned out to be 73% on 5-HT1A human receptors and 96% on D4 human receptors.

For `O=c1n(CCO)c2ccccc2n1CCCCN1CC=C(c2ccccc2)CC1` [compound 65], the inhibition at 0.1 µM on 5-HT1A human receptors came out at 52%; at D4 human receptors it was 74%.

As for `O=c1n(CCO)c2ccccc2n1CCCCN1CCN(c2ccc(Cl)c(Cl)c2)CC1` [compound 66], the inhibition at 0.1 µM is 65% on 5-HT1A human receptors and 99% at D4 human receptors.

Regarding `COc1ccccc1N1CCN(CCCCn2c(=O)n(CCO)c3ccccc32)CC1` [compound 74], the inhibition at 0.1 µM on 5-HT1A human receptors was found to be 92%; on D4 human receptors, 62%.

As to `CCNC(=O)OCCn1c(=O)n(CCCCN2CCN(c3ccccc3)CC2)c2ccccc21` [compound 75], the inhibition at 0.1 µM was determined as 67% at 5-HT1A human receptors and 54% on D4 human receptors.

With `O=c1n(CCN2CCCCC2)c2ccccc2n1CCN1CCN(c2cccc(C(F)(F)F)c2)CC1` [compound 149], the inhibition at 0.1 µM on 5-HT1A human receptors was found to be 88%; on D4 human receptors it was 35%.

With `O=c1n(CCN2CC=C(c3ccccc3)CC2)c2ccccc2n1CCN1CCCCC1` [compound 150], the results for the inhibition at 0.1 µM at 5-HT1A human receptors and on D4 human receptors were 57% and 52%, respectively.

On to `COc1ccccc1N1CCN(CCn2c(=O)n(CCN3CCCCC3)c3ccccc32)CC1` [compound 159], for which the inhibition at 0.1 µM at 5-HT1A human receptors came to 85%; at D4 human receptors it was 50%.

With `CCNC(=O)OCCn1c(=O)n(CCN2CCN(c3ccccc3OC)CC2)c2ccccc21` [compound 216], the figures for the inhibition at 0.1 µM at 5-HT1A human receptors and on D4 human receptors were 92% and 44%, respectively.

On to `O=c1n(CCN2CCOCC2)c2ccccc2n1CCN1CCN(c2cccc(Cl)c2)CC1` [compound 224], for which the inhibition at 0.1 µM on 5-HT1A human receptors was determined as 98%; on D4 human receptors it was 51%.

Regarding `O=c1n(CCN2CC=C(c3ccccc3)CC2)c2ccccc2n1CCN1CCOCC1` [compound 229], the inhibition at 0.1 µM at 5-HT1A human receptors was determined as 67%; at D4 human receptors, 34%.

`CS(=O)(=O)NCCn1c(=O)n(CCN2CCN(c3cccc(Cl)c3)CC2)c2ccccc21` [compound 241]: the values for the inhibition at 0.1 µM at 5-HT1A human receptors and on D4 human receptors were 69% and 32%, respectively.

As to `COc1ccccc1N1CCN(CCn2c(=O)n(CCNS(C)(=O)=O)c3ccccc32)CC1` [compound 255], the inhibition at 0.1 µM at 5-HT1A human receptors came to 58%; at D4 human receptors, 33%.

For the compound `Cc1cccc(N2CCN(CCn3c(=O)n(CCNS(C)(=O)=O)c4ccccc43)CC2)c1` [compound 256], the results for the inhibition at 0.1 µM at 5-HT1A human receptors and at D4 human receptors were 59% and 51%, respectively.

With `O=c1n(CC=CCN2CCc3c([nH]c4ccccc34)C2)c2ccccc2n1CCN1CCOCC1` [compound 265], the inhibition at 0.1 µM was determined as 55% on 5-HT1A human receptors and 78% at D4 human receptors.

As for `COCCn1c(=O)n(CC=CCN2CCN(c3cccc(Cl)c3)CC2)c2ccccc21` [compound 280], the results for the inhibition at 0.1 µM on 5-HT1A human receptors and at D4 human receptors were 93% and 38%, respectively.

Take `COCCn1c(=O)n(C/C=C\CN2CCN(c3ccc(Cl)c(Cl)c3)CC2)c2ccccc21` [compound 286]: the values for the inhibition at 0.1 µM on 5-HT1A human receptors and on D4 human receptors were 65% and 87%, respectively.

Turning to `COCCn1c(=O)n(C/C=C/CN2CCN(c3ccccc3)CC2)c2ccccc21` [compound 293], the results for the inhibition at 0.1 µM at 5-HT1A human receptors and on D4 human receptors were 89% and 32%, respectively.

Take `COCCn1c(=O)n(C/C=C/CN2CCN(c3ccc(Cl)c(Cl)c3)CC2)c2ccccc21` [compound 303]: the inhibition at 0.1 µM on 5-HT1A human receptors worked out at 71%; on D4 human receptors, 70%.

As to `O=c1n(C/C=C\CN2CCN(C(c3ccccc3)c3ccc(Cl)cc3)CC2)c2ccccc2n1CCN1CCCCC1` (stereo not drawn) [compound 311], the inhibition at 0.1 µM came to 59% at 5-HT1A human receptors and 60% at D4 human receptors.
